Measurements published in paper PMC7160333, “Physiological Role of Glutamate Dehydrogenase in Cancer Cells” (Frontiers in Oncology, 2020).
Read-outs that look alike come from different tables or passages of the source.

Assays:
A549 cells = settings: for Duplication time: A549, 2-D culture, n = 3; for Maximal cellular densities: reached at day 6
Procedure: (§3) All cancer and non-cancer cell lines used were purchased from ATCC and cultured in DMEM (Sigma-Aldrich) supplemented with 10% fetal bovine serum (Biowest, Nuaillé, France) and 10,000 U penicillin/streptomycin (Sigma-Aldrich) and placed under a humidified atmosphere of 5% CO2/95% air at 37°C.
(§4) Cell growth was followed by counting cellular density every 24 h during 7 to 8 days. […] The duplication time was determined by using the following equation: n=1/[3.32(logNF-logNI)]/(tF-tI) , where NF represents the number of cultured cells at the end of the exponential growth phase; NI represents the number of cells at the beginning of the growth curve; tF is the final time at which cells were harvested, and tI is the initial culture time. The specific growth rate μ was calculated from the slope of a semilogarithmic plot of cell densities in the exponential growth phase vs. time ([88]).

HeLa cells = settings: for Duplication time: 2-D culture, n = 3; for Maximal cellular densities: reached at day 4
Procedure: as §3, §4

GDH in HepM and RLM = GDH in HepM and RLM (Rattus norvegicus, UniProt P10860); experiment: GDH reverse reaction kinetics, summary statements for HepM and RLM; format: biochemical
Procedure: The decrease in the absorbance at 340 nm was followed for several minutes (~10 min) to allow for full development of the pronounced enzyme hysteretic behavior, although the initial signal decrease (1–3 min) was taken to calculate the GDH rates. The protein concentration ranges used for each mitochondrial type were well within the linearity range of enzyme activity. To calculate the kinetic parameters, the experimental data were fitted by non-linear regression analysis to the Hill or MWC equation, using the Microcal Origin 5.0 software (OriginLab, Northampton, MA, USA).

HepM GDH1 = HepM GDH1 (Rattus norvegicus, UniProt P10860); experiment: GDH reverse (aminating) reaction activity in hepatoma mitochondria (HepM); format: biochemical; settings: HepM; for K0.5 NH4+: reverse reaction, Hill equation; for Km: read-out: Km NH4+
Procedure: (§1) Tightly coupled mitochondria were isolated from fed-rat liver (RLM) and AS-30D cells (HepM) as described elsewhere ([89], [90]). […] The resulting mitochondrial fractions were resuspended at 30 to 80 mg protein/mL in SHE buffer with 1 mM PMSF, 1 mM EDTA, 5 mM DTT, and 10% glycerol, and stored at −70°C until use for determination of enzyme activity and Western blotting.

HFF-1 fibroblasts = settings: for Duplication time: HFF-1, 2-D culture, n = 3; for Maximal cellular densities: reached at day 5
Procedure: as §3, §4

HeLa MCTS = experiment: HeLa multicellular tumor spheroid (MCTS) growth with ammonium; format: cell-based, human
Procedure: (§2) After 5 days, the culture medium was refreshed, and the MCTSs formed were placed under slow orbital shaking (20–50 rpm) at 37°C and 95% air/5% CO2. […] The spheroid growth was determined at the indicated times by measuring MCTS diameter with a calibrated reticule (1/10 mm) in an inverted phase contrast microscope (Zeiss, Thornwood, NY, USA) ([86]).

HCT116 cells = settings: for Duplication time: HCT116, 2-D culture, n = 3; for Maximal cellular densities: reached at day 7
Procedure: as §3, §4

PC3 cells = settings: for Maximal cellular densities: reached at day 5
Procedure: as §3, §4

cancer cells = experiment: Viability by trypan blue assay in 2-D cultures with ammonium; format: cell-based, human; settings: all culture conditions
[1] = test system: total GDH activity (GDH1 + GDH2) in HeLa and MCF-7 cells; settings: 5 mM NH4Cl in culture medium, 5 days, data not shown
MCF-7 cells [2] = settings: for Duplication time: MCF-7, 2-D culture, n = 3; for Maximal cellular densities: reached at day 6
Procedure: as §3, §4

RLM GDH1 = RLM GDH1 (Rattus norvegicus, UniProt P10860); experiment: GDH reverse (aminating) reaction activity in rat liver mitochondria (RLM); format: biochemical; settings: RLM; for K0.5 NH4+: reverse reaction, Hill equation; for Km: read-out: Km NH4+
Procedure: as §1

DU145 cells = settings: for Duplication time: DU145, 2-D culture, n = 3; for Maximal cellular densities: reached at day 5
Procedure: as §3, §4

MDA-MB-231 MCTS = experiment: MDA-MB-231 multicellular tumor spheroid (MCTS) growth with ammonium; format: cell-based, human
Procedure: as §2

GDH = settings: GDH1, reported values; cited from earlier work
Colo 205 cells = settings: for Duplication time: Colo 205, 2-D culture, n = 3; for Maximal cellular densities: reached at day 6
Procedure: as §3, §4

3T3 fibroblasts = settings: for Duplication time: 3T3, 2-D culture, n = 3; for Maximal cellular densities: reached at day 5
Procedure: as §3, §4

MDA-MB-231 cells = settings: for Duplication time: MDA-MB-231, 2-D culture, n = 3
Procedure: as §3, §4

MCF-7 cells [3] = test system: MCF-7 cells; set-up: method as in PMID 28303961; settings: MCF-7, ammonium 2–5 mM; cited from earlier work
[4] = test system: recombinant human GDH isoforms (GDH1 and GDH2), bovine liver GDH, Ox brain GDH, dogfish liver GDH, rat brain GDH, and bovine brain GDH isoforms; set-up: method as in PMID 4381532, PMID 7588764, PMID 17924438, PMID 23420347, PMID 7190024; settings: pH range of 7.4–8.7; cited from earlier work
[5] = pH 7.2, MWC equation, GTP inhibition, saturating ADP
[6] = pH 7.5, MWC equation, GTP inhibition, saturating ADP

RLM GDH1, sequence (P10860 54-558): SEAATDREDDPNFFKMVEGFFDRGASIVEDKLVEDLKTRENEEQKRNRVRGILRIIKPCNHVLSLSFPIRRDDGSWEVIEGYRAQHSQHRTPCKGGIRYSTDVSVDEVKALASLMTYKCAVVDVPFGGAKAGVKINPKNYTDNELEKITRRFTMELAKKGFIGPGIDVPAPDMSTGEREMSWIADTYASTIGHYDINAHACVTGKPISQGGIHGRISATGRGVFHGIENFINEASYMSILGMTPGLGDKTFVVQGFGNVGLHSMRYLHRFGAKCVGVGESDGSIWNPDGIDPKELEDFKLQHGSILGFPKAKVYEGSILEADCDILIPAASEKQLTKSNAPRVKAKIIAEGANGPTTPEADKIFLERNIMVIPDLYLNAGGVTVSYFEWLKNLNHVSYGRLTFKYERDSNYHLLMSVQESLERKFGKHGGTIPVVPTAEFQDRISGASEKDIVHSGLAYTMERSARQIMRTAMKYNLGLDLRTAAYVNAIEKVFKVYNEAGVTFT
HepM GDH1, sequence (P10860 54-558): as above
GDH in HepM and RLM, sequence (P10860 54-558): as above

In the case of `Cl.N` [NH4Cl, Ammonium chloride], the Duplication time (A549 cells; +5 mM NH4Cl) is reported as 20 ± 2 h, the Duplication time (A549 cells; +10 mM NH4Cl) is reported as 17 ± 3 h and the Maximal cellular densities (A549 cells; A549, +5 mM NH4Cl) is reported as 49 ± 4 ×10^3. The Maximal cellular densities (A549 cells; A549, +10 mM NH4Cl) was 56 ± 2 ×10^3, the Duplication time (HeLa cells; +5 mM NH4Cl) was 25.5 ± 2 h and the Duplication time (HeLa cells; +10 mM NH4Cl) was 24 ± 2 h. For the same compound, the Maximal cellular densities (HeLa cells; +5 mM NH4Cl) was 153 ± 13 ×10^3, the Maximal cellular densities (HeLa cells; +10 mM NH4Cl) was 163 ± 9 ×10^3 and the “Rescue of growth after glutamine removal from the culture medium” value (HeLa cells; NH4Cl 1–10 mM, data not shown) was “did not rescue their growth”. For the same compound, the “K0.5 for NH4+” value (GDH in HepM and RLM; Hill equation, HepM and RLM, summary) was “over 20 mM”, the Km (GDH in HepM and RLM; MWC equation, pH 7.5, summary of Table 3, read-out: Km for ammonium) was ~9 mM and the “K0.5 NH4+” value (HepM GDH1; pH 7.2, 37°C) was 25.2 ± 8 mM. For the same compound, the “nH (Hill coefficient) for NH4+” value (HepM GDH1; pH 7.2, Hill equation) was 2.12 ± 0.7, the Km (HepM GDH1; [5]) was 12 ± 2.6 mM and the Km (HepM GDH1; pH 7.2, MWC equation, with ADP) was 11.2 ± 3.5 mM. The “K0.5 NH4+” value (HepM GDH1; pH 7.5, 37°C) was 26.8 ± 7.2 mM, the “nH (Hill coefficient) for NH4+” value (HepM GDH1; pH 7.5, Hill equation) was 1.5 ± 0.7 and the Km (HepM GDH1; [6]) was 10.3 ± 2.6 mM. For the same compound, the Km (HepM GDH1; pH 7.5, MWC equation, with ADP) was 9.3 ± 7.2 mM, the Duplication time (HFF-1 fibroblasts; +5 mM NH4Cl) was 38 ± 12 h and the Duplication time (HFF-1 fibroblasts; +10 mM NH4Cl) was 55 ± 2 h. For the same compound, the Maximal cellular densities (HFF-1 fibroblasts; HFF-1, +5 mM NH4Cl) was 60 ± 10 ×10^3, the Maximal cellular densities (HFF-1 fibroblasts; HFF-1, +10 mM NH4Cl) was 46 ± 3 ×10^3 and the IC50 (HFF-1 fibroblasts; read-out: IC50 for decrease of growth, human HFF-1 fibroblasts, data not shown) was ~1000 µM. The “MCTS growth (diameter)” value (HeLa MCTS; 5 and 10 mM ammonium) was “inhibited”, the “MCTS growth (diameter)” value (HeLa MCTS; ammonium supplementation) was “did not stimulate growth” and the Duplication time (HCT116 cells; +5 mM NH4Cl) was 45 ± 1 h. The Duplication time (HCT116 cells; +10 mM NH4Cl) was 39 ± 2 h, the Maximal cellular densities (HCT116 cells; HCT116, +5 mM NH4Cl) was 76 ± 11 ×10^3 and the Maximal cellular densities (HCT116 cells; HCT116, +10 mM NH4Cl) was 80 ± 13 ×10^3. For the same compound, the Duplication time (PC3 cells; PC3, 2-D culture, +10 mM NH4Cl, n = 3) was 26 ± 1 h, the Maximal cellular densities (PC3 cells; PC3, +5 mM NH4Cl) was 136 ± 2 ×10^3 and the Maximal cellular densities (PC3 cells; PC3, +10 mM NH4Cl) was 141 ± 1.4 ×10^3. For the same compound, the Viability (cancer cells) was “higher than 90%”, the “Change of total GDH activity” value [1] was “did not alter the total GDH activity or induced a slight (~20%) decrease” and the Duplication time (MCF-7 cells [2]; +5 mM NH4Cl) was 37 ± 2 h. The Duplication time (MCF-7 cells [2]; +10 mM NH4Cl) was 45 ± 6 h, the Maximal cellular densities (MCF-7 cells [2]; MCF-7, +5 mM NH4Cl) was 72 ± 6 ×10^3 and the Maximal cellular densities (MCF-7 cells [2]; MCF-7, +10 mM NH4Cl) was 76 ± 5 ×10^3. For the same compound, the “K0.5 NH4+” value (RLM GDH1; pH 7.2, 37°C) was 23.9 ± 3.7 mM, the “nH (Hill coefficient) for NH4+” value (RLM GDH1; pH 7.2, Hill equation) was 1.97 ± 0.8 and the Km (RLM GDH1; [5]) was 8.5 ± 4.5 mM. For the same compound, the Km (RLM GDH1; pH 7.2, MWC equation, with ADP) was 18 ± 11 mM, the “K0.5 NH4+” value (RLM GDH1; pH 7.5, 37°C) was 18.2 ± 5.9 mM and the “nH (Hill coefficient) for NH4+” value (RLM GDH1; pH 7.5, Hill equation) was 1.4 ± 0.4. For the same compound, the Km (RLM GDH1; [6]) was 5.6 ± 3.6 mM, the Km (RLM GDH1; pH 7.5, MWC equation, with ADP) was 8.8 ± 4.1 mM and the Proliferation rates (DU145 cells; DU145, 0.1 and 0.5 mM NH4Cl, data not shown) was “increased proliferation rates”. The Duplication time (DU145 cells; +5 mM NH4Cl) was 32 ± 2 h, the Duplication time (DU145 cells; +10 mM NH4Cl) was 35 ± 3 h and the Maximal cellular densities (DU145 cells; DU145, +5 mM NH4Cl) was 92 ± 6 ×10^3. For the same compound, the Maximal cellular densities (DU145 cells; DU145, +10 mM NH4Cl) was 85 ± 4 ×10^3, the “MCTS growth (diameter)” value (MDA-MB-231 MCTS; ammonium 10 mM) was “clearly toxic” and the “MCTS growth (diameter)” value (MDA-MB-231 MCTS; ammonium 0.5–5 mM) was “promoted enhanced growth rates”. For the same compound, the “reported K0.5 for ammonium” value (GDH) was 15 to 60 mM, the Duplication time (Colo 205 cells; +5 mM NH4Cl) was 48 ± 2 h and the Duplication time (Colo 205 cells; +10 mM NH4Cl) was 44 ± 4 h. For the same compound, the Maximal cellular densities (Colo 205 cells; Colo 205, +5 mM NH4Cl) was 68 ± 6 ×10^3, the Maximal cellular densities (Colo 205 cells; Colo 205, +10 mM NH4Cl) was 66 ± 6 ×10^3 and the Duplication time (3T3 fibroblasts; +5 mM NH4Cl) was 46 ± 2 h. The Duplication time (3T3 fibroblasts; +10 mM NH4Cl) was 60 ± 1 h, the Maximal cellular densities (3T3 fibroblasts; 3T3, +5 mM NH4Cl) was 45 ± 3 ×10^3 and the Maximal cellular densities (3T3 fibroblasts; 3T3, +10 mM NH4Cl) was 36 ± 2 ×10^3. For the same compound, the IC50 (3T3 fibroblasts; read-out: IC50 for decrease of growth, mouse 3T3 fibroblasts, data not shown) was ~1000 µM, the Duplication time (MDA-MB-231 cells; +5 mM NH4Cl) was 26 ± 3 h and the Duplication time (MDA-MB-231 cells; +10 mM NH4Cl) was 25 ± 1 h. The Maximal cellular densities (MDA-MB-231 cells; MDA-MB-231, +5 mM NH4Cl, reached at day 4) was 145 ± 13 ×10^3, the “Rescue of growth after glutamine removal from the culture medium” value (MDA-MB-231 cells; MDA-MB-231, NH4Cl 1–10 mM, data not shown) was “did not rescue their growth” and the Cell proliferation (MCF-7 cells [3]) was “only slightly stimulated”. The “K0.5 NH4+” value [4] was 6.5 to 80 mM.
